Laboratory results reported in patent US20060276385A1, “Anti-inflammatory agents and methods of their use” (priority 2003, published 2006).

Assays:
[1] = tested on: MAE-wt cells; experiment: O2− assay by electron spin resonance spectroscopy with CMH spin probe; type: cell-based, mouse; conditions: MAE-wt cells, BMP4 200 ng/ml for 18 hrs, SOD-inhibitable CM signal
Method: O2^− Assay: O2^− production was determined by electron spin resonance spectroscopy using methoxycarbonyl-2,2,5,5-tetramethyl-pyrrolidine (CMH) as a spin probe in the presence or absence of PEG-superoxide dismutase (PEG-SOD; 50 U/ml) to quantify the SOD-inhibitable portions of CM.
In FIG. 10A immediately following treatment of MAE wt cells with BMP4 (200 ng/ml) for 18 hrs, cells were trypsinized and reconstituted in Krebs-Hepes buffer. Equal number of cells was incubated with a spin trap CMH in the presence or absence of PEG-SOD (50 U/mL). The specific O2^− production was calculated by subtracting SOD-inhibitable portions from total O2^− production as determined by following CM production (mean±SEM, n=3, *p<0.05).

[2] = tested on: MAEC; experiment: Monocyte adhesion: THP-1 monocytes bound to mouse aortic endothelial cells; type: cell-based
Method: Endothelial cells: Mouse aortic endothelial cells (MAEC) were cultured and used at passages 4-8 as described (Cai, H., et al. (2002) J Bio Chem 107, 48311-48317). Human aortic endothelial cells (HAEC) purchased from Clonetics were cultured using EGM-2 bullet kit (Clonetics) and used at passages 4-8. Alternatively, endothelial cells obtained from the thoracic aortas of C57/BL6 control (MAE-wt) and p47^phox-null mice (MAE-p47^−/−) were isolated and cultured as described previously (Hwang, J. et al. (2003) J Biol Chem 278:47291-8), and used between passages 4-10.
Shear stress studies: Confluent endothelial monolayers grown in 100 mm tissue culture dishes were exposed to an arterial level of uni-directional LS (15 dyn/cm^2) in the growth medium by rotating a Teflon cone (0.5° cone angle) as described previously. To mimic unstable shear conditions in vivo, endothelial cells were exposed to OS with directional changes of flow at 1 Hz cycle (±5 dyn/cm^2) by rotating the cone back-and-forth using a stepping motor (Servo Motor) and a computer program (DC Motor Company, Atlanta, Ga.). In some studies, 5 dyn/cm^2 unidirectional LS was used for comparison to OS (±5 dyn/cm^2).
Monocyte Adhesion: Monocyte binding was determined under no-flow conditions using THP-1 monocytes (ATCC) by the method described by Chappel et al (Chappell, D. C., et al. (1998) Circ Res 82, 532-539). Briefly, THP-1 cells (5×10^5 cells/ml) were labeled with a fluorescent dye 2′,7′-bis(carboxyethyl)-5(6)-carboxyfluorescein-AM (BCECF, Molecular Probes) (1 mg/ml) in serum-free RPMI medium for 45 min at 37° C. Following exposure to shear stress or BMP treatments in the presence or absence of noggin or vehicle, the endothelial cells were washed in RPMI medium before adding BCECF-loaded THP-1 cells (1:1 ratio). After a 30 min incubation at 37° C. under no-flow conditions, unbound monocytes were removed by washing the endothelial dishes 5 times with Hank's PBS. Bound monocytes were quantified by either counting the cells under a fluorescent microscope or by measuring the fluorescent intensity of cell lysates by fluorescence spectrophotometry using a plate reader. […] Some studies were performed with MAEC pretreated with 5 μg/ml of mouse-ICAM1 antibody (YN1, Southern Biolechonology) (Kevil, C. G., et al. (2001) Am J Physiol Cell Physiol 281, C1442-1447).
In FIG. 7B, confluent MAE-wt cells were pre-incubated with cell-permeable PEG-catalase (Catalase, 100 U/ml for 18 hrs) or Tiron (10 μmol/L for 1 hr). Cells were then incubated with 20 ng/ml BMP4 or vehicle for additional 18 hrs. The treated cells in 7A and 7B were washed, and fluorescently-labeled THP-1 monocytes were added. Unbound THP-1 cells were washed after 30 min, and bound monocytes were counted with a fluorescence microscope using a 10× objective (5-10 different fields per dish). […] As a positive control, monocyte binding was determined using MAE-wt treated with TNF-α(100 U/ml for 2hrs).

[3] = tested on: NF-κB; experiment: NF-κB assay with NF-κB-SEAP reporter construct; type: cell-based; conditions: NF-κB-SEAP co-transfected with BMP4 vector vs empty vector
Method: NF-κB assay: NF-κB activity was determined by using a NF-κB reporter construct, NF-κB-SEAP vector (lug, Clontech) expressing a secreted form of placental alkaline phosphatase driven by […] sequences in tandem. This construct was co-transfected with 0.5 μg of either pAdTrack BMP4 or empty vector control using Lipofectamine 2000. Six hours post transfection, conditioned media were centrifuged, heat-treated at 65° C. (to inactivate endogenous alkaline phosphatase) for 30 min, and followed by chemiluminescence alkaline phosphatase assay according to the manufacturer's instructions.
In this study, NF-κB-SEAP construct expressing a secreted form of placental alkaline phosphatase driven by 4 κB sequences in tandem was co-transfected with either BMP4 vector or empty vector control by a Lipofectamine method used above (FIG. 5F).

BMP4
O2− production above control [1]: 2.9 fold
monocyte adhesion above vehicle control ([2]; MAE-wt cells, BMP4 20 ng/ml, 18 hrs): 5 to 6 fold
effect on LS inhibition of monocyte adhesion ([2]; MAEC sheared (LS) 24 hrs in medium supplemented with BMP4): inhibitory effect of LS on monocyte adhesion was lost
monocyte binding, maximum activation over control ([2]; MAEC treated with increasing concentrations of BMP4 for 24 hr (overnight)): 4 to 7 fold
BMP4 concentration inducing maximum effect on monocyte adhesion ([2]; MAEC, 24 hr): 50 ng/mL
lowest BMP4 concentration inducing a statistically significant increase in monocyte adhesion ([2]; MAEC, 24 hr): 0.1 ng/mL
NF-κB activity above controls [3]: more than 3 fold
